Reference: patent publication US20260355330A1, “CELL PENETRATING PEPTIDES AND USES THEREOF” (VECTIOPEP OÜ, priority 2022, published 2026)
Positions of bridges follow the written chain, without caps; N, C: chain ends. Non-standard residues stand in square brackets, D forms with d. Residues, ends and D or L forms follow the SMILES beside them. Chains are numbered I, II in the order given. *: point of attachment. Arachidoyl = CCCCCCCCCCCCCCCCCCCC(=O)*; Stearoyl = CCCCCCCCCCCCCCCCCC(=O)*; Palmitoyl = CCCCCCCCCCCCCCCC(=O)*; Orn = NCCC[C@H](N)C(=O)O; Dab = NCC[C@H](N)C(=O)O

Tests used:
CHO-K1 cells = test: Delivery of reporter mRNA with CPPs in cell culture (luciferase luminescence 24 h post-transfection); type: cell-based; settings: for Average RLU/mg (reporter levels post-transfection of mRNA): firefly luciferase mRNA, 0.1 μg per well, charge ratio 3:1, serum containing media, 24 h, RLU normalised to total protein in lysate
Method: FIG. 1: Delivery of reporter mRNA with CPPs in cell culture—evaluation of reporter levels post-transfection (relative light units normalised to total protein in the cell lysate (RLU/mg)). Naked mRNA treated cells were used as controls and Lipofectamine3000 (LF3000) was used to compare the transfection efficacy with a liposome-based transfection reagent.
Adherent CHO-K1 cells were grown in Dulbecco's Modified Eagle's Medium (DMEM), which were supplemented with 0.1 mM non-essential amino acids, 1.0 mM sodium pyruvate, 100 U/ml penicillin, and […]. For complete media, 10% (final) fetal bovine serum (FBS) was added. Cells were maintained in a humidified incubator at 37 °C, 5% CO2. Cell viability and confluence was assessed daily and the cell density was reduced regularly. For cell counting, we used the CytoSMART cell counter accompanied by 0.4% trypan blue staining prior measurement. The multi-well plates with cell cultures used for experiments were incubated in a humidified incubator at 37 °C, 5% CO2.
For in vitro experiments 0.1 μg of nucleic acid (plasmid DNA (pDNA) or mRNA) was used per 96-well plate well. For CPP/NA complex formation, the diluted NA was mixed with CPP in water. Complexes were formed based on the theoretical charge ratio (CR) of positive charges from the peptide in excess to the negative charges from nucleic acid backbone, at charge ratio 3:1 with peptide in excess. Commercial reagent Lipofectamine3000 (LF3000) was used according to the manufacturer's recommendations for the transfection of adherent cells.
For reporter luminescence (expressed from firefly luciferase encoding mRNA or plasmid pDNA) assessment in adherent cell culture, 10,000 cells per 96-well plate well were seeded in 100 μl of media one day prior to transfection. Shortly before transfection, cell media was replaced with 100 μl of serum containing (10% foetal bovine serum) DMEM media. CPPs and mRNA or pDNA were mixed at a charge ratio 3:1 in ultrapure water and incubated at room temperature before addition to cells in serum containing media. Cells were transfected with 0.1 μg of mLuc per well.
24 hours post-transfection, the media was aspirated, cells were washed with 1×PBS, and 30 μl of lysis buffer (0.1% Triton X100 in 1×PBS) was added. Cells were incubated with lysis buffer for 20 min. to lyse the cells. From the lysate, 20 μl was transferred to a black frame white well 96-well plate for luminescence measurement after addition of substrate luciferin (PerkinElmer) in buffer. The luminescence signal was detected with GloMax® 96 microplate luminometer equipped with GloMax® 1.9.2 software (Promega). RLU values were converted to RLU/mg by normalization to total protein in cell lysate, reflecting total number of cells. For protein detection, a Pierce™ BCA Protein Assay Kit was used.
The present inventors have previously reported CPPs developed from the NickFect (NF) and PepFect (PF) families for plasmid (pDNA), siRNA and miRNA delivery (see, e.g. WO 2020/144317, WO 2010/039088 and WO 2012/113846). With the emergence of mRNA-based therapeutics, it was decided to investigate peptides for their ability to deliver mRNA. It was assumed that CPPs that are efficient for siRNA and miRNA delivery, e.g. histidine containing CPPs (Porosk et. al. (2019)), may be good candidates for the delivery of mRNA. Therefore, CPPs from each main family (NF55-, PF14- and NF70-derived CPPs) were tested for mRNA delivery/transfection. Naked mRNA treated and untreated cells were used as control groups. LF3000 was used to compare the transfection efficacy of liposome-based transfection reagents with the CPPs (FIG. 1).

spleen of BALB/c mice = test: In vivo delivery of mRNA with CPPs - reporter levels in the spleen; settings: for Efficacy of mRNA delivery into the spleen in vivo / Delivery of mRNA in vivo compared to NF54 and/or NF55: in words; for Efficacy of mRNA delivery into the spleen in vivo: FIG. 5 / Table 5; for Reporter levels in the spleen (RLU): mRNA, tail vein injection, spleens harvested 16 hours after single injection, whole tissue homogenate; for Delivery of mRNA in vivo compared to NF54 and/or NF55: comparator NF54 and/or NF55
Method: FIG. 5: Delivery of mRNA with CPPs in vivo—reporter levels in the spleen. Spleens were harvested post mortem 16 hours post-injection. The reporter levels (RLU) were evaluated from the whole tissue homogenate.
The transfection complexes (CPP/mRNA) were formed using 10 μg of mRNA mixed with each peptide at indicated charge ratios (CRs) in MQ water in a final volume of 100 μl. CRs were calculated theoretically and account for both the positive charges of the peptide and negative charges of the nucleic acid. The transfection complexes (CPP/mRNA and CPP/pDNA) were formed using 50 μg of mRNA mixed with each peptide at indicated charge ratios (CRs) in MQ water in a final volume of 168 μl. The complexes were incubated for 30 minutes at room temperature and then mixed with equal volume of 10% glucose (resulting in a final solution of 5% glucose in a total volume of 200 μl for 10 μg dose groups and 336 μl for 50 μg dose groups) and immediately injected intravenously via the tail vein.
The reporter gene (luciferase) expression levels were evaluated from the tissue homogenate post mortem 16-24 h after single injection.
CPPs and mRNA complexes were injected through the tail vein of BALB/c mice, spleens were harvested 16 hours after the single injection and reporter signal was measured from the whole tissue homogenate (FIG. 5 and Table 5).

SMILES | Average RLU/mg (reporter levels post-transfection of mRNA) (CHO-K1 cells) | Efficacy of mRNA delivery into the spleen in vivo (spleen of BALB/c mice) | Reporter levels in the spleen (RLU) (spleen of BALB/c mice) | Efficiency of mRNA transfection/delivery (CHO-K1 cells; in words, FIG. 1 / Table 2, cell culture) | Delivery of mRNA compared to NF54 (CHO-K1 cells; in words, comparator NF54) | Delivery of mRNA compared to NF55 (CHO-K1 cells; in words, comparator NF55) | Delivery of mRNA in vivo compared to NF54 and/or NF55 (spleen of BALB/c mice) | mRNA in vivo spleen delivery efficiency relative to NF70 (spleen of BALB/c mice; vs NF70, 16 h post-injection) [times] | mRNA in vivo spleen delivery efficiency relative to PF1452 (spleen of BALB/c mice; vs PF1452, 16 h post-injection) [times]
CCCCCCCCCCCCCCCC(=O)N[C@@H](C)C(=O)NCC(=O)N[C@@H](Cc1ccc(O)cc1)C(=O)N[C@@H](CC(C)C)C(=O)N[C@@H](CC(C)C)C(=O)NCC(=O)NCCC[C@H](N)C(=O)N[C@H](C(=O)N[C@@H](CC(N)=O)C(=O)N[C@@H](CC(C)C)C(=O)N[C@@H](CCCCN)C(=O)N[C@@H](C)C(=O)N[C@@H](CC(C)C)C(=O)N[C@@H](C)C(=O)N[C@@H](C)C(=O)N[C@@H](CC(C)C)C(=O)N[C@@H](C)C(=O)N[C@@H](CCCCN)C(=O)N[C@@H](C)C(=O)N[C@H](C(=O)N[C@@H](CC(C)C)C(N)=O)[C@@H](C)CC)[C@@H](C)CC [NF419] | 491 000 000 RLU/mg | delivered mRNA into the spleen in vivo with high efficacy | 179 114 RLU | – | – | – | – | – | –
CCCCCCCCCCCCCCCC(=O)N[C@@H](C)C(=O)NCC(=O)N[C@@H](Cc1ccc(O)cc1)C(=O)N[C@@H](CC(C)C)C(=O)N[C@@H](CC(C)C)C(=O)NCC(=O)NCCCC[C@H](N)C(=O)N[C@H](C(=O)N[C@@H](CC(N)=O)C(=O)N[C@@H](CC(C)C)C(=O)N[C@@H](CCCCN)C(=O)N[C@@H](C)C(=O)N[C@@H](CC(C)C)C(=O)N[C@@H](C)C(=O)N[C@@H](C)C(=O)N[C@@H](CC(C)C)C(=O)N[C@@H](C)C(=O)N[C@@H](CCCCN)C(=O)N[C@@H](C)C(=O)N[C@H](C(=O)N[C@@H](CC(C)C)C(N)=O)[C@@H](C)CC)[C@@H](C)CC [NF420] (I: H-KINLKALAALAKAIL-NH2 / II: Palmitoyl-AGYLLG; amide I:1-II:C) | 548 000 000 RLU/mg | – | 81 271 RLU | – | – | – | – | – | –
CCCCCCCCCCCCCCCC(=O)N[C@@H](C)C(=O)NCC(=O)N[C@@H](Cc1ccc(O)cc1)C(=O)N[C@@H](CC(C)C)C(=O)N[C@@H](CC(C)C)C(=O)NCC(=O)NCC[C@H](N)C(=O)N[C@@H](CC(C)C)C(=O)N[C@@H](CCCCN)C(=O)N[C@@H](C)C(=O)N[C@@H](CC(C)C)C(=O)N[C@@H](C)C(=O)N[C@@H](C)C(=O)N[C@@H](CC(C)C)C(=O)N[C@@H](C)C(=O)N[C@@H](CCCCN)C(=O)N[C@@H](C)C(=O)N[C@H](C(=O)N[C@@H](CC(C)C)C(N)=O)[C@@H](C)CC [NF425] (I: H-[Dab]LKALAALAKAIL-NH2 / II: Palmitoyl-AGYLLG; amide I:1-II:C) | 106 000 000 RLU/mg | delivered mRNA into the spleen in vivo with high efficacy | 209 700 RLU | – | – | – | – | – | –
CCCCCCCCCCCCCCCCCCCC(=O)N[C@@H](C)C(=O)NCC(=O)N[C@@H](Cc1ccc(O)cc1)C(=O)N[C@@H](CC(C)C)C(=O)N[C@@H](CC(C)C)C(=O)NCC(=O)NCC[C@H](N)C(=O)N[C@@H](CC(C)C)C(=O)N[C@@H](CCCCN)C(=O)N[C@@H](C)C(=O)N[C@@H](CC(C)C)C(=O)N[C@@H](C)C(=O)N[C@@H](C)C(=O)N[C@@H](CC(C)C)C(=O)N[C@@H](C)C(=O)N[C@@H](CCCCN)C(=O)N[C@@H](C)C(=O)N[C@H](C(=O)N[C@@H](CC(C)C)C(N)=O)[C@@H](C)CC [NF426] (I: H-[Dab]LKALAALAKAIL-NH2 / II: Arachidoyl-AGYLLG; amide I:1-II:C) | 1 960 000 000 RLU/mg | delivered mRNA into the spleen in vivo with high efficacy | 259 807 RLU | the most efficient | equivalent delivery of cargo such as mRNA to NF54 | good improvement in delivery of mRNA over NF55 | good improvement in mRNA delivery in vivo over NF55 | – | –
CCCCCCCCCCCCCCCCCC(=O)N[C@@H](C)C(=O)NCC(=O)N[C@@H](Cc1ccc(O)cc1)C(=O)N[C@@H](CC(C)C)C(=O)N[C@@H](CC(C)C)C(=O)NCC(=O)NCCC[C@H](N)C(=O)N[C@@H](CC(C)C)C(=O)N[C@@H](CCCCN)C(=O)N[C@@H](C)C(=O)N[C@@H](CC(C)C)C(=O)N[C@@H](C)C(=O)N[C@@H](C)C(=O)N[C@@H](CC(C)C)C(=O)N[C@@H](C)C(=O)N[C@@H](CCCCN)C(=O)N[C@@H](C)C(=O)N[C@H](C(=O)N[C@@H](CC(C)C)C(N)=O)[C@@H](C)CC [NF430] (I: H-[Orn]LKALAALAKAIL-NH2 / II: Stearoyl-AGYLLG; amide I:1-II:C) | 766 000 000 RLU/mg | highest reporter levels after mRNA delivery into the spleen in vivo | 405 318 RLU | – | – | – | – | – | –
CCCCCCCCCCCCCCCCCC(=O)N[C@@H](C)C(=O)NCC(=O)N[C@@H](Cc1ccc(O)cc1)C(=O)N[C@@H](CC(C)C)C(=O)N[C@@H](CC(C)C)C(=O)NCC(=O)NCC[C@H](N)C(=O)N[C@@H](CC(C)C)C(=O)N[C@@H](CCCCN)C(=O)N[C@@H](C)C(=O)N[C@@H](CC(C)C)C(=O)N[C@@H](C)C(=O)N[C@@H](C)C(=O)N[C@@H](CC(C)C)C(=O)N[C@@H](C)C(=O)N[C@@H](C)C(=O)N[C@@H](CCCCN)C(=O)N[C@H](C(=O)N[C@@H](CC(C)C)C(N)=O)[C@@H](C)CC [NF436] (I: H-[Dab]LKALAALAAKIL-NH2 / II: Stearoyl-AGYLLG; amide I:1-II:C) | 380 000 000 RLU/mg | highest reporter levels after mRNA delivery into the spleen in vivo | 825 783 RLU | – | – | – | significantly improved delivery of mRNA in vivo over both NF54 and NF55 | 100 | 43
CCCCCCCCCCCCCCCCCC(=O)N[C@@H](C)C(=O)NCC(=O)N[C@@H](Cc1ccc(O)cc1)C(=O)N[C@@H](CC(C)C)C(=O)N[C@@H](CC(C)C)C(=O)NCC(=O)NC[C@H](N)C(=O)N[C@H](C(=O)N[C@@H](CC(N)=O)C(=O)N[C@@H](CC(C)C)C(=O)N[C@@H](CCCCN)C(=O)N[C@@H](C)C(=O)N[C@@H](CC(C)C)C(=O)N[C@@H](C)C(=O)N[C@@H](C)C(=O)N[C@@H](CC(C)C)C(=O)N[C@@H](C)C(=O)N[C@@H](CCCCN)C(=O)N[C@@H](C)C(=O)N[C@H](C(=O)N[C@@H](CC(C)C)C(N)=O)[C@@H](C)CC)[C@@H](C)CC [NF550] | 441 000 000 RLU/mg | – | 33 032 RLU | – | – | – | – | – | –
